Earlier results on 1 compound are cited in patent publication US20180177735A1, “Stable Pharmaceutical Composition Of Phytonadione And A Novel Process For Preparation Thereof” (Amneal Pharmaceuticals Company GmbH, priority 2016, published 2018).

Where two headings read alike, the source gives them in different places.

Take `CC1=C(C/C=C(\C)CCC[C@H](C)CCC[C@H](C)CCCC(C)C)C(=O)c2ccccc2C1=O` [Phytonadione]: the solubility entry by setting is: (in chloroform) “soluble”; (in ethanol) “slightly soluble (1 g of material requires 100 to 1000 ml of solute to dissolve)”; (in water) “insoluble”.
